How the values were obtained:
hPepT1 = target: T1, hPepT1 (Homo sapiens, UniProt P46059); test: In vitro PepT1 GlySar inhibition screen and IC50 determination; format: cell-based; conditions: PepT1 transiently transfected HeLa cells; for inhibition at 5000 µM: pH 6.0, 3 minutes, read-out: hPepT1 [3H]Gly-Sar uptake inhibition at 5 mM
T1 construct: expressed in transfected cells; host or cells: HeLa cells (ATCC), transient transfection with PepT1 DNA using FuGene6
T1 sequence (P46059 1-708): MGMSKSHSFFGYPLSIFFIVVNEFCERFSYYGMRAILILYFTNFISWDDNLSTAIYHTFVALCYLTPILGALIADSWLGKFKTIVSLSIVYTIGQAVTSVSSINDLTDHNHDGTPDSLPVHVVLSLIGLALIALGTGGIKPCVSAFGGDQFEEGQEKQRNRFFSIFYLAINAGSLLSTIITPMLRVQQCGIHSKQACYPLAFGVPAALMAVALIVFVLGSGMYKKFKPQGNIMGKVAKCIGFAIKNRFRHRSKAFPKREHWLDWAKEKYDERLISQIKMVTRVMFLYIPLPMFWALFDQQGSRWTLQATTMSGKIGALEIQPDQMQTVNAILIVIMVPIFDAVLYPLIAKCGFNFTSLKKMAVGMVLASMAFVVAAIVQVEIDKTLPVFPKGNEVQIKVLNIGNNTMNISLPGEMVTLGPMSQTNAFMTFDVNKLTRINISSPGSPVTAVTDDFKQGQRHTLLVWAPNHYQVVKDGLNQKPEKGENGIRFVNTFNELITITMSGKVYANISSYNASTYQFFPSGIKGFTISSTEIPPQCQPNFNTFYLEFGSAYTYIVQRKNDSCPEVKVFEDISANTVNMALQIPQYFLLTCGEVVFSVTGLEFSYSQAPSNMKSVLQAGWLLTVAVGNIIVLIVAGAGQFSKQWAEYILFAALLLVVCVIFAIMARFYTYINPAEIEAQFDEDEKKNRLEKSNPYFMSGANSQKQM
Protocol: HeLa cells, […], (American Type Culture Collection) are grown in Hyclone Medium (Invitrogen, Cat# SH30243) containing 10% fetal bovine serum (FBS), 0.1 mM non essential amino acids (NEAA), and 100 units/mL penicillin with 100 μg/mL streptomycin at 37° C. in a 5% CO2 humidified atmosphere. The cell line is used for up to 40 passages and then discarded. Frozen cells in 1 ml vials are thawed in water bath for 1-2 minutes and added to 5 mL of cell medium at 37° C. Each of the T-flasks is provided with 8.5 mL of the fresh medium and 1.5 mL of the cell stock. Cells are passaged twice during a week. This is achieved by rinsing the flasks with 10 mL of phosphate buffered saline-ethylene diaminetetra acetic acid (PBS-EDTA), adding 2 mL of trypsin for 2-5 minutes, to detach the cells, and adding 8 mL of fresh medium to inhibit further activity of trypsin. Each new flask receives a combination of 8.5 mL of fresh medium and 1.5 mL of cell stock, in order to obtain 1:6 cell dilution. Cells are incubated at 37° C., until ready for the uptake study.
Cells that are 70-80% confluent in the T-flasks are plated 1 day prior to the transfection procedure. The flask with the cell stock is treated with PBS-EDTA and trypsin to detach the cells, and transfection medium is used from this point. Transfection medium consists of Dulbecco's Modified Eagle Medium (DMEM)+NEAA. To each well, 0.5 mL of the cell mixture is added (1.3×10^5 is the desired cell concentration) and the cells are incubated at 37° C. overnight. Twenty four hours before the assay, cells are transfected with PEPT1. Transfection mixture is prepared by mixing 600 μL of serum free transfection medium, 18 μL of FuGene6 (Roche Diagnostics), and 11 μg of the PepT1 DNA. The transfection reagent-DNA complex is incubated for 20 minutes and 24 μL of the reagent-DNA complex is added to each well.
J. Pharm. Exper Ther. 310:437-445). […] Uptake media consists of 140 mM NaCl, 5.4 mM KCl, 1.8 mM CaCl2, 0.8 mM MgSO4, 5 mM Glucose, 25 mM tris(hydroxymethyl)aminomethane buffer (TRIS). The solution is then brought to pH 6.0 using 2-(N-morpholino)ethanesulfonic acid. The incubation volume is 500 μL and is performed at room temperature for 3 minutes. To stop the uptake at the conclusion of the incubation time, the uptake media is aspirated off of the cell monolayer and 500 μL of ice cold PBS added to the well. The cells are washed 3 times with 500 μL of room temperature PBS without Ca^+2 and Mg^+2. The cells are then lysed with 300 μL of 1% Triton X100 H2O solution. […] A no inhibitor control is established and the percent inhibition of each prodrug is calculated with respect to this control.
The incubation and sampling procedures are exactly the same as the PepT1 screen described above.

[1] = test system: male, Sprague-Dawley rats; test: Reversal of phencyclidine (PCP)-induced hyperlocomotor activity in rats; format: in vivo, rat; conditions: Rattus norvegicus; p.o., overnight fasted rats, 4 hours prior to 5 mg/kg PCP
Excerpt: Motor activity is monitored by placing individual male, Sprague-Dawley (Harlan, Indianapolis, Ind.) rats in transparent, plastic shoe-box cages of the dimensions 45×25×20 cm, with 1 cm depth of wood chips as bedding, and a metal grill on top of the cage. Motor monitors (Kinder Scientific) consist of a rectangular rack of 12 photobeams arranged in an 8×4 formation, (or a high density grouping of 22 in a 15×7 pattern) at a height of 5 cm, with a second rack (for measuring rearing behaviors) at a height of 15 cm. The shoe box cage is placed inside of these racks, with the racks on a 3 foot high tabletop in an isolated room. A compound of the invention (active) is dosed (intraperitoneal route) within a range of 0.3-10 mg/kg, 30 minutes prior to a 5 mg/kg challenge dose of phencyclidine (PCP). A compound of the invention (prodrug) is orally dosed within a range of 0.3-30 mg/kg, in overnight fasted rats, 4 hours prior to a 5 mg/kg challenge dose of PCP. On the test day, rats are placed in the test cage and allowed to acclimate for 30 minutes prior to PCP challenge; rats are monitored for an additional 60 minutes following PCP administration.
Data analysis and ED50 calculations are conducted using GraphPad Prism (San Diego, Calif. USA). Power analyses have determined that 8-10 rats per group are needed to have appropriate statistical power for detecting treatment differences (power=0.8). A one-way analysis of variance (ANOVA) with a post-hoc Dunnett's multiple comparison test is conducted on the total 60 minute locomotor activity. ED50 calculations are performed using non-linear regression curve fitting on percent reversal transformed data for each dose.

[2] = 1 h, 10 µM, pH 7.4
Protocol: Frozen human duodenum intestinal homogenates (1:2 tissue:buffer ratio using 100 mM Tris Phosphate buffer, pH 7.4) are obtained from Celsius In Vitro Technologies (Baltimore, Md.) that were both phenylmethylsulphonylfluoride (PMSF) and EDTA free.
All original tissue collections are performed at 4° C. and immediately frozen at −70° C. Human intestinal homogenates are thawed and diluted to a final protein concentration of 0.5 mg/mL in 100 mM PBS buffer, pH 7.4 immediately prior to the incubations.
Incubations are conducted in 96-well plates and all prodrugs are run in duplicate on each day. Stock prodrug solutions are prepared in water at a concentration of 1 mM. A 200 μL aliquot of 0.5 mg/mL intestinal homogenate and 196 μL of 100 mM PBS buffer are placed in a 96-well plate in a 37° C. water bath. Using a 96-well pipettor, 4 μL of the 1 mM prodrug solution is transferred into the homogenate. Immediately after addition of the prodrug (time zero) and after 1 hour incubation, 50 μL samples of the incubation mixture are removed using an automated disposable simultaneous 96 well pipettor and added directly to 200 μL of methanol quench solution containing 100 ng/mL of Internal Standard. The samples are then centrifuged at 3500 rpm for 5 minutes at 10° C. The supernatant (200 μL) is transferred to a final 96 well PCR plate and sealed for analysis by LC/MS/MS.
Concentrations of hydrolyzed active metabolite in the incubation mixtures are determined using LC/MS/MS detection on a Sciex API 4000 quadrapole mass spectrometer with Analyst version 1.4.2, TurbolonSpray, positive ionization, and Selected Reaction Monitoring (SRM). […]
Averages and standard deviations are calculated using Microsoft® Office Excel® 2007. Amount of hydrolysis is determined as a molar percentage of active metabolite formed relative to prodrug concentration added.

Row | IC50 (hPepT1; 0.0625 to 25 mM, read-out: hPepT1 [3H]Gly-Sar uptake inhibition IC50) | inhibition at 5000 µM (hPepT1) | human intestinal hydrolysis relative to Internal Prodrug A [2] | SMILES | ED50 [1]
1 | 250 µM | 87% | 44% | CSCC[C@H](N)C(=O)N[C@@]1(C(=O)O)CC2(CC2)[C@H]2[C@H](C(=O)O)[C@H]21.Cl [Example 6, (1S,2S,5R,6S)-2-[[(2S)-2-Amino-4-methylsulfanyl-butanoyl]amino]spiro[bi-cyclo[3.1.0]hexane-4,1′-cyclopropane]-2,6-dicarboxylic acid hydrochloride] | 4.31 mg/kg
2 |  | 78% | 34% | Cl.NCC(=O)N[C@@]1(C(=O)O)CC2(CC2)[C@H]2[C@H](C(=O)O)[C@H]21 [Example 7, (1S,2S,5R,6S)-2-[(2-Aminoacetyl)amino]spiro[bi-cyclo[3.1.0]hexane-4,1′-cyclo-propane]-2,6-dicarboxylic acid hydrochloride] | 
